Values joined by “and” are separate entries in the source; they are usually repeats but may differ in a detail not shown here. Equal values may be shown once. Toxic doses and inconclusive results are not listed. No stated cut-off is given here; in the data, active means T/C of 150% or more; inactive means T/C below 125%.
Test system: L1210 leukemia ip in BDF1 mice, survival T/C
Experiment: NCI In Vivo Anticancer Drug Screen. Data for tumor model L1210 Leukemia (intraperitoneal) in B6D2F1 (BDF1) mice
Settings: endpoint: mean survival time, higher = longer survival
In short: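 Value reflects the ratio of survival in compound-treated mice to survival in vehicle-treated controls, with both groups carrying the same transplanted tumor.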

[1] = dose: 5.0 mg/kg/injection, schedule: Q01DX001 (ip), vehicle: saline
[2] = dose: 10.0 mg/kg/injection, schedule: Q01DX001 (ip), vehicle: saline
[3] = dose: 20.0 mg/kg/injection, schedule: Q01DX001 (ip), vehicle: saline
[4] = dose: 40.0 mg/kg/injection, schedule: Q01DX001 (ip), vehicle: saline
[5] = dose: 80.0 mg/kg/injection, schedule: Q01DX001 (ip), vehicle: saline

Measured: T/C

CCN(CC)CCCC(C)Nc1ccnc2ccc(-c3ccccc3)cc12 (configuration not stated)
inactive: [1] 100 % of control | [2] 100 % of control | [3] 91 % of control | [4] 96 % of control | [5] 104 % of control

CC1([CH2][Hg][I])CS(=O)(=O)CC(C)([CH2][Hg][I])O1 (configuration not stated)
inactive: [1] 104 % of control | dose: 5.0 mg/kg/injection, schedule: Q01DX015 (ip), vehicle: saline 94 % of control | [2] 104 % of control | dose: 10.0 mg/kg/injection, schedule: Q01DX015 (ip), vehicle: saline 97 % of control | [3] 96 % of control | dose: 20.0 mg/kg/injection, schedule: Q01DX015 (ip), vehicle: saline 102 % of control | [4] 98 % of control | dose: 40.0 mg/kg/injection, schedule: Q01DX015 (ip), vehicle: saline 108 % of control | [5] 104 % of control

CCCCCn1c(C)cc(/C=C\c2ccc3cc(C)ccc3[n+]2C)c1C
inactive: dose: 0.5 mg/kg/injection, schedule: Q01DX001 (ip), vehicle: carboxymethylcellulose (CMC) 94 % of control | dose: 0.5 mg/kg/injection, schedule: Q01DX009 (ip), vehicle: saline sonified 116 % of control | dose: 0.5 mg/kg/injection, schedule: Q04DX003 (ip), vehicle: saline sonified 98 % of control | dose: 0.66 mg/kg/injection, schedule: Q01DX009 (ip), vehicle: saline 101 % of control | dose: 1.0 mg/kg/injection, schedule: Q01DX001 (ip), vehicle: carboxymethylcellulose (CMC) 97 % of control | dose: 1.0 mg/kg/injection, schedule: Q01DX009 (ip), vehicle: saline 100 % of control | dose: 1.0 mg/kg/injection, schedule: Q04DX003 (ip), vehicle: saline sonified 97 % of control | dose: 1.5 mg/kg/injection, schedule: Q01DX009 (ip), vehicle: saline 92 % of control | dose: 2.0 mg/kg/injection, schedule: Q01DX001 (ip), vehicle: carboxymethylcellulose (CMC) 97 % of control | dose: 2.0 mg/kg/injection, schedule: Q04DX003 (ip), vehicle: saline sonified 106 % of control

Cc1c(C)c(C)c(CSC(N)=Nc2ccccc2)c(C)c1C
inactive: dose: 50.0 mg/kg/injection, schedule: Q01DX009 (ip), vehicle: saline with Tween-80 98 % of control | dose: 100.0 mg/kg/injection, schedule: Q01DX009 (ip), vehicle: saline with Tween-80 102 % of control | dose: 200.0 mg/kg/injection, schedule: Q01DX009 (ip), vehicle: saline with Tween-80 102 % of control

O=[N+]([O-])c1cc(Cl)ccc1S(=O)(=O)CC(Cl)c1ccccc1 (configuration not stated)
inactive: dose: 100.0 mg/kg/injection, schedule: Q01DX001 (ip), vehicle: acetone 104 % of control | dose: 100.0 mg/kg/injection, schedule: Q01DX009 (ip), vehicle: acetone 98 % of control | dose: 100.0 mg/kg/injection, schedule: Q04DX003 (ip), vehicle: acetone 108 % of control | dose: 200.0 mg/kg/injection, schedule: Q01DX001 (ip), vehicle: acetone 104 % of control | dose: 200.0 mg/kg/injection, schedule: Q01DX009 (ip), vehicle: acetone 87 % of control and 88 % of control | dose: 200.0 mg/kg/injection, schedule: Q04DX003 (ip), vehicle: acetone 100 % of control | dose: 400.0 mg/kg/injection, schedule: Q01DX001 (ip), vehicle: acetone 101 % of control | dose: 400.0 mg/kg/injection, schedule: Q01DX009 (ip), vehicle: acetone 106 % of control and 92 % of control | dose: 400.0 mg/kg/injection, schedule: Q04DX003 (ip), vehicle: acetone 100 % of control

CCN1c2c(nc(N)[nH]c2=O)NCC1CNc1ccc(C(=O)NC(CCC(=O)O)C(=O)O)cc1 (configuration not stated)
inactive: dose: 100.0 mg/kg/injection, schedule: Q01DX009 (ip), vehicle: saline 103 % of control | dose: 100.0 mg/kg/injection, schedule: Q04DX003 (ip), vehicle: saline 108 % of control | dose: 200.0 mg/kg/injection, schedule: Q01DX009 (ip), vehicle: saline 115 % of control | dose: 200.0 mg/kg/injection, schedule: Q04DX003 (ip), vehicle: saline 104 % of control | dose: 400.0 mg/kg/injection, schedule: Q01DX009 (ip), vehicle: saline 94 % of control | dose: 400.0 mg/kg/injection, schedule: Q04DX003 (ip), vehicle: saline 103 % of control

Reference: PubChem BioAssay AID248 (DTP/NCI, 2004)
